Assay results from US12581252B2, “Substituted pyrrolo[3,4-b]pyridines as PI3K-α inhibitors” (Relay Therapeutics, Inc., priority 2020, dated 2026).

Molecular target: H1047R PIK3CA enzyme (Homo sapiens, UniProt P42336, H1047R)
Test: ADP-Glo Biochemical PIK3CA Kinase Assay

Sequence of H1047R PIK3CA enzyme (P42336 whole entry H1047R): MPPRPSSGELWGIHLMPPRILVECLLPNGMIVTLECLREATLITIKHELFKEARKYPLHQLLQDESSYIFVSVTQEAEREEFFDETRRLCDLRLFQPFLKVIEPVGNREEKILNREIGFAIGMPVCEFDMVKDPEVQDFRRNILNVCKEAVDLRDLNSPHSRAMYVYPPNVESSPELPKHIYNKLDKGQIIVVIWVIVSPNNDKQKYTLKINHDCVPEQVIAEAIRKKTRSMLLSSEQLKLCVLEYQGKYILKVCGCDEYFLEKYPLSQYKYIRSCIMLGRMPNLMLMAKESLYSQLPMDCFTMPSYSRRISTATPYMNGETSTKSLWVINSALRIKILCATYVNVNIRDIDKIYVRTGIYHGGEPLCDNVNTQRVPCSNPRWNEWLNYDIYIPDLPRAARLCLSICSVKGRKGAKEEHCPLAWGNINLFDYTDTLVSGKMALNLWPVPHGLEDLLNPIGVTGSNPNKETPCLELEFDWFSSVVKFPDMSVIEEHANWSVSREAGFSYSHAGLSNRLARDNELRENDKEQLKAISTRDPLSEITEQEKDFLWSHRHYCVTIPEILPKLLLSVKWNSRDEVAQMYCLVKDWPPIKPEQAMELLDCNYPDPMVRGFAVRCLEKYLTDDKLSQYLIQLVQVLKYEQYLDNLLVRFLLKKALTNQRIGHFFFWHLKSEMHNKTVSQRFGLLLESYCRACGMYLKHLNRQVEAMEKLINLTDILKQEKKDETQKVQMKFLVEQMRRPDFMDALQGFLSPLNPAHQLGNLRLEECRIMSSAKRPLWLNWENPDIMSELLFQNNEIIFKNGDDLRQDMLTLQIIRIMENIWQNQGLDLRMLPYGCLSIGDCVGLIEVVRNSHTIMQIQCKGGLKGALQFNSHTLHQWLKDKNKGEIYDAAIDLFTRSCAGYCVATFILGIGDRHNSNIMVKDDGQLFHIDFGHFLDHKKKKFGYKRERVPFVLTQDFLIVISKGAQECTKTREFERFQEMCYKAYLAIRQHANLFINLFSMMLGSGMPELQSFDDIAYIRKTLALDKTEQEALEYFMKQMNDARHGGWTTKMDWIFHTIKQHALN
Sequence of H1047R PIK3CA enzyme (P27986 whole entry partner): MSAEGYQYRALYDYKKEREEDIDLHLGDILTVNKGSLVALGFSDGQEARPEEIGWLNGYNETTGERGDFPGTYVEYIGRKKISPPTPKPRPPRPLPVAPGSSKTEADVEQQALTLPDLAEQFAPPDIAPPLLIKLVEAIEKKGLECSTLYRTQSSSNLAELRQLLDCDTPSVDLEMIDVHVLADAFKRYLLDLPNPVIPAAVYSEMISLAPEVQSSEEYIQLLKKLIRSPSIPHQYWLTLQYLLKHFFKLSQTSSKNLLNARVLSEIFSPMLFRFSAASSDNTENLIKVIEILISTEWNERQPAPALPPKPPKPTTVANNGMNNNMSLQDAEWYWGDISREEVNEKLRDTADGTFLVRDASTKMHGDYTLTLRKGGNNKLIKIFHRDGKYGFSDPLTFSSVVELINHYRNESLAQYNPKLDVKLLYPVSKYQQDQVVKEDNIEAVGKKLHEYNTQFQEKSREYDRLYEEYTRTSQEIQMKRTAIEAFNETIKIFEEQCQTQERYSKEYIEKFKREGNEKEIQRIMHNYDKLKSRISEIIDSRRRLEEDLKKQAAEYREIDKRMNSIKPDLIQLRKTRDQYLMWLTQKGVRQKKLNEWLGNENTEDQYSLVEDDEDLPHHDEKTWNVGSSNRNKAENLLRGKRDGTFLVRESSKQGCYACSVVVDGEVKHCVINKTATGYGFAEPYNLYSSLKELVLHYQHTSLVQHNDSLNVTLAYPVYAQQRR

SMILES | IC50 [µM]
CC(O)Cc1cc(NC(=O)c2cc(F)cc(C(F)(F)F)c2)c2c(c1)C(=O)NC2c1cc(F)ccc1Cl (racemic) [Compound I-665] | ≤ 0.1
O=C(Nc1cc(-c2cn[nH]c2)nc2c1[C@H](c1cc(F)ccc1Cl)NC2=O)c1cc(F)cc(C(F)(F)F)c1 [Compound I-194] | ≤ 0.1
Cc1ccccc1C1NC(=O)c2cccc(NCc3nsc4ccccc34)c21 (stereo not drawn) [Compound I-145] | 10 to 100
O=C(Nc1cc(Br)cc2c1C(c1cc(F)ccc1Cl)NC2=O)c1ccccc1 (stereo not drawn) [Compound I-470] | 10 to 100
Cc1ccccc1C1NC(=O)c2nccc(NC(=O)N3CCc4c(F)cc(F)cc43)c21 (stereo not drawn) [Compound I-148] | 0.5 to 1
O=C(Nc1cccc2c1C([C@H]1CCCC[C@@H]1O)NC2=O)c1cc(F)cc(C(F)(F)F)c1 (single isomer, unassigned) [Compound I-1972] | 10 to 100
O=C(Nc1cccc2c1C(c1ccc3ccccc3c1)NC2=O)c1cc(F)cc(C(F)(F)F)c1 (stereo not drawn) [Compound I-371] | 10 to 100
O=C1NC(c2cc(F)ccc2Cl)c2c(NC(=O)c3nsc4ccccc34)cc(CO)cc21 (stereo not drawn) [Compound I-154] | ≤ 0.1
O=C(Nc1cc(-c2ccc3nccn3c2)cc2c1C(c1cc(F)ccc1Cl)NC2=O)c1cc(F)cc(C(F)(F)F)c1 (stereo not drawn) [Compound I-736] | ≤ 0.1
O=C(Nc1cc(NC(=O)N2CC(F)(F)C2)cc2c1C(c1cc(F)ccc1Cl)NC2=O)c1cc(F)cc(C(F)(F)F)c1 (stereo not drawn) [Compound I-513] | ≤ 0.1
O=C(Nc1cc(Br)cc2c1[C@@H](c1cc(F)cc(F)c1Cl)NC2=O)c1cc(F)cc(C(F)(F)F)c1 [Compound I-806] | 0.5 to 1
O=C(Nc1cc(-c2ncc[nH]2)cc2c1[C@@H](c1cc(F)ccc1Cl)NC2=O)c1cc(F)cc(C(F)(F)F)c1 [Compound I-918] | 0.5 to 1
O=C(Nc1cccc2c1C(c1ccc(C3CC3)cc1Cl)NC2=O)c1cc(F)cc(C(F)(F)F)c1 (stereo not drawn) [Compound I-424] | 1 to 10
O=C(Nc1cccc2c1C(c1cc(Cl)cc(F)c1F)NC2=O)c1cc(F)cc(C(F)(F)F)c1 (stereo not drawn) [Compound I-401] | 0.1 to 0.5
COc1cccc(-c2cc(NC(=O)c3cc(F)cc(C(F)(F)F)c3)c3c(c2)C(=O)NC3c2cc(F)ccc2Cl)n1 (stereo not drawn) [Compound I-891] | ≤ 0.1
O=C(Nc1cc(Br)cc2c1C(c1cc(F)ccc1Cl)NC2=O)c1ccc(F)c(OC(F)F)c1 (stereo not drawn) [Compound I-558] | 1 to 10
O=C(Nc1cc(N2CCC(F)(F)C2)nc2c1C(c1cc(F)ccc1Cl)NC2=O)c1cc(F)cc(C(F)(F)F)c1 (stereo not drawn) [Compound I-357] | ≤ 0.1
CC(C)(O)Cc1cc(NC(=O)c2cc(F)cc(C(F)(F)F)c2)c2c(c1)C(=O)N[C@@H]2c1cc(F)ccc1Cl [Compound I-622] | 0.1 to 0.5
O=C(Nc1cc(N[C@H]2C[C@H](F)C2)cc2c1C(c1cc(F)ccc1Cl)NC2=O)c1cc(F)cc(C(F)(F)F)c1 (single isomer, unassigned) [Compound I-540] | ≤ 0.1
CC(C)(O)c1cc(NC(=O)c2cc(F)cc(C(F)(F)F)c2)c2c(c1)C(=O)N[C@@H]2c1cc(F)ccc1C(F)F [Compound I-263] | 10 to 100
O=C1N[C@@H](c2cc(F)ccc2C(F)F)c2c(NC(=O)c3nsc4ccccc34)cccc21 [Compound I-168] | ≤ 0.1
O=C(Nc1cc(NC(=O)C2CCO2)cc2c1C(c1cc(F)ccc1Cl)NC2=O)c1cc(F)cc(C(F)(F)F)c1 (stereo not drawn) [Compound I-361] | ≤ 0.1
Cc1ccccc1-n1[nH]c(=O)c2cccc(NC(=O)c3cc(F)cc(C(F)(F)F)c3)c21 [Compound I-178] | 0.5 to 1
O=C(Nc1cccc2c1[C@@H](c1cc(F)ccc1C(F)F)NC2=O)c1cc(F)cc(C(F)(F)F)c1 [Compound I-169] | 1 to 10
CS(=O)(=O)C1CN(c2cc(NC(=O)c3cc(F)cc(C(F)(F)F)c3)c3c(n2)C(=O)NC3c2cc(F)ccc2Cl)C1 (stereo not drawn) [Compound I-418] | 0.1 to 0.5
Cc1ccccc1C1NC(=O)c2cc(CN)cc(NC(=O)c3csc4ccccc34)c21 (stereo not drawn) [Compound I-88, N-(6-(Aminomethyl)-1-oxo-3-(o-tolyl)isoindolin-4-yl)benzo[b]thiophene-3-carboxamide] | ≤ 0.1

More lines, now with the values ahead:

IC50 [µM] | SMILES
1 to 10 | Cn1nccc1Nc1cc(NC(=O)c2cc(F)cc(C(F)(F)F)c2)c2c(c1)C(=O)N[C@@H]2c1cc(F)ccc1Cl [Compound I-1145]
1 to 10 | CS(=O)(=O)c1cc(NC(=O)c2cc(F)cc(C(F)(F)F)c2)c2c(c1)C(=O)NC2(c1cc(F)ccc1Cl)S(=O)(=O)O (stereo not drawn) [Compound I-1296]
10 to 100 | O=C1NC(c2cc(F)ccc2Cl)c2c(NC(=O)C3CCC(O)(C(F)(F)F)CC3)cccc21 (stereo not drawn) [Compound I-2155]
1 to 10 | O=C1N[C@H](c2cc(F)ccc2Cl)c2c(NC(=O)N3C[C@@H](O)c4c(F)cccc43)cccc21 (single isomer, unassigned) [Compound I-2145]
10 to 100 | O=C1N[C@@H](c2cc(F)ccc2Cl)c2c(NC(=O)[C@@H]3CCCCN3)cc(-c3ccc4ncnn4c3)cc21 (racemic) [Compound I-1780]
10 to 100 | CC(C)(CC(F)(F)F)C(=O)Nc1cc(Br)cc2c1C(c1cc(F)ccc1Cl)NC2=O (stereo not drawn) [Compound I-1619]
0.1 to 0.5 | O=C(Nc1cc(-c2ccc3ncnn3c2)cc2c1[C@H](c1cc(F)ccc1Cl)NC2=O)c1cc(F)cc2c1NC(=O)C2(F)F [Compound I-1584]
10 to 100 | O=C1N[C@@H](c2cc(F)ccc2Cl)c2c(NC(=O)[C@H]3C[C@H]3C(F)(F)F)cc(Br)cc21 (racemic) [Compound I-1853]
1 to 10 | O=C(Nc1cccc2c1C(C1=CCCCC1)NC2=O)c1cc(F)cc(C(F)(F)F)c1 (stereo not drawn) [Compound I-1629]
1 to 10 | O=C1NC(c2cc(F)ccc2Cl)c2c(NC(=O)C3CCCC(C(F)(F)F)N3)cc(-c3ccc4ncnn4c3)cc21 (mixture of isomers) [Compound I-1992]
10 to 100 | O=C(Nc1cccc2c1C([C@@H]1CCCC[C@H]1O)NC2=O)c1cc(F)cc(C(F)(F)F)c1 (single isomer, unassigned) [Compound I-1971]
0.1 to 0.5 | O=C(Nc1cc(-c2ccn3ccnc3c2)cc2c1[C@@H](c1cc(F)ccc1Cl)NC2=O)c1cc(F)cc(C(F)(F)F)c1 [Compound I-1451]
10 to 100 | O=C(CC1CCCC(O)C1)Nc1cc(-c2ccc3ncnn3c2)cc2c1C(c1cc(F)ccc1Cl)NC2=O (stereo not drawn) [Compound I-1960]
1 to 10 | O=C(Nc1cc(Br)cc2c1C(c1cc(F)ccc1Cl)NC2=O)c1cc(F)cc(CC(F)F)c1 (stereo not drawn) [Compound I-1745]
10 to 100 | O=C(Nc1cc(Br)cc2c1[C@H](c1cc(F)ccc1Cl)NC2=O)N[C@]1(CC(F)(F)F)CCCOC1 (racemic) [Compound I-1949]
10 to 100 | CSc1cc(-c2ccc3ncnn3c2)cc2c1C(c1cc(F)ccc1Cl)NC2=O (stereo not drawn) [Compound I-1892]
1 to 10 | O=C1NC(c2cc(F)ccc2Cl)c2c(NC(=O)N3CCCCC3)cc(-c3ccc4ncnn4c3)cc21 (stereo not drawn) [Compound I-1663]
0.1 to 0.5 | O=C1N[C@H](c2cc(F)ccc2Cl)c2c(NC(=O)N3C[C@H](O)c4ccccc43)cc(Br)cc21 (single isomer, unassigned) [Compound I-1513]
≤ 0.1 | N#CC1CN(S(=O)(=O)Cc2cc(NC(=O)c3cc(F)cc(C(F)(F)F)c3)c3c(c2)C(=O)NC3c2cc(F)ccc2Cl)C1 (stereo not drawn) [Compound I-1556]

IC50 [µM] | SMILES
0.5 to 1 | C=CCCCOc1cc(NC(=O)c2cc(F)cc(C(F)(F)F)c2)c2c(c1)C(=O)NC2c1cc(F)ccc1Cl (stereo not drawn) [Compound I-1234]
1 to 10 | O=C(Nc1cc(-c2ccc3ncnn3c2)cc2c1C(c1cc(F)ccc1Cl)NC2=O)c1ccccc1 (stereo not drawn) [Compound I-1550]
≤ 0.1 | CS(=O)(=O)c1cc(NC(=O)c2cc(F)cc(C(F)(F)F)c2)c2c(c1)C(=O)NC2c1cc(F)ccc1Cl (stereo not drawn) [Compound I-1276]
≤ 0.1 | N#Cc1nccn1Cc1cc(NC(=O)c2cc(F)cc(C(F)(F)F)c2)c2c(c1)C(=O)NC2c1cc(F)ccc1Cl (stereo not drawn) [Compound I-1557]
≤ 0.1 | O=C1NC(c2cc(F)ccc2Cl)c2c(NC(=O)C3CCCC(C(F)(F)F)C3)cc(-c3ccc4ncnn4c3)cc21 (mixture of isomers) [Compound I-1816]
10 to 100 | O=C1NC(c2cc(F)ccc2Cl)c2c1cc(-c1ccc3ncnn3c1)cc2N1CCN(C(=O)C(F)(F)F)CC1 (stereo not drawn) [Compound I-2046]
10 to 100 | N#Cc1cccc2c1CCN2C(=O)Nc1cccc2c1C(c1cc(F)ccc1Cl)NC2=O (stereo not drawn) [Compound I-2425]
0.1 to 0.5 | O=C(Nc1cc(-c2ccc3ncnn3c2)cc2c1C(c1cc(F)ccc1Cl)N(CO)C2=O)c1cc(F)cc(C(F)(F)F)c1 (stereo not drawn) [Compound I-1342]
0.1 to 0.5 | O=C(Nc1cc(OC[C@H]2CCCN2)cc2c1C(c1cc(F)ccc1Cl)NC2=O)c1cc(F)cc(C(F)(F)F)c1 (mixture of isomers) [Compound I-1457]
≤ 0.1 | O=C(Nc1cc(N2CCS(=O)(=O)CC2)cc2c1C(c1cc(F)ccc1Cl)NC2=O)c1cc(F)cc(C(F)(F)F)c1 (stereo not drawn) [Compound I-1248]
10 to 100 | C[C@@H]([C@H]1C[C@H](O)CN1C(=O)Nc1cccc2c1[C@H](c1cc(F)ccc1Cl)NC2=O)C(F)(F)F (single isomer, unassigned) [Compound I-2378]
0.1 to 0.5 | C[C@H](C#N)Cn1cc(-c2cc(NC(=O)N3C[C@H](O)c4cc(F)ccc43)c3c(c2)C(=O)N[C@@H]3c2cc(F)ccc2Cl)cn1 (single isomer, unassigned) [Compound I-2500]
≤ 0.1 | O=C(Nc1cc(Cn2cccn2)cc2c1[C@H](c1cc(F)ccc1Cl)NC2=O)c1cc(F)cc(C(F)(F)F)c1 (stereo in doubt) [Compound I-1615]
0.1 to 0.5 | O=C(Nc1cc(-c2ccccc2C(=O)O)cc2c1C(c1cc(F)ccc1Cl)NC2=O)c1cc(F)cc(C(F)(F)F)c1 (stereo not drawn) [Compound I-1216]
1 to 10 | CCC1C(C)CCN1C(=O)Nc1cccc2c1C(c1cc(F)ccc1Cl)NC2=O (mixture of isomers) [Compound I-2394]
10 to 100 | CN(C)S(=O)(=O)c1cc(-c2ccc3ncnn3c2)cc2c1C(c1cc(F)ccc1Cl)NC2=O (stereo not drawn) [Compound I-1968]
0.1 to 0.5 | CC(c1cc(NC(=O)c2cc(F)cc(C(F)(F)F)c2)c2c(c1)C(=O)NC2c1cc(F)ccc1Cl)[S+](C)[O-] (racemic) [Compound I-1472]
10 to 100 | O=C1NC(c2cc(F)ccc2Cl)c2c(NC3CCNCC3)cc(-c3ccc4ncnn4c3)cc21 (stereo not drawn) [Compound I-2024]
